# Data reported in patent US8541464B2, “Treatment of atrial fibrillation” (HUYA Biosciences International LLC, priority 2009, dated 2013).
# pIC50: −log10 of the molar value.
# Key:
# [1] = target: T1, Slow Na (Homo sapiens, UniProt Q14524); experiment: Ion channel profiling in isolated atrial cardiomyocytes; type: cell-based; conditions: Human/atria isolated atrial cardiomyocytes
# T1 construct: in isolated atrial cardiomyocytes; endogenous in cells; host or cells: isolated human atrial cardiomyocytes
# [2] = target: T2, IKr (Homo sapiens, UniProt Q12809); experiment: as above; type: cell-based; conditions: Human/atria isolated atrial cardiomyocytes
# T2 construct: in isolated atrial cardiomyocytes; endogenous in cells; host or cells: isolated human atrial cardiomyocytes
# [3] = target: T3, Ito (Homo sapiens, UniProt Q9UK17); experiment: as above; type: cell-based; conditions: Human/atria isolated atrial cardiomyocytes
# T3 construct: in isolated atrial cardiomyocytes; endogenous in cells; host or cells: isolated human atrial cardiomyocytes
# [4] = tested on: Ito; experiment: as above; type: cell-based; conditions: Rabbit/atria isolated atrial cardiomyocytes
# [5] = tested on: Fast Na; experiment: as above; type: cell-based; conditions: Rabbit/atria isolated atrial cardiomyocytes
# [6] = tested on: ion channels in human atrial cardiomyocytes; conditions: sulcardine and its salts, in vitro, reported; cited from earlier work
# [7] = target: T4, Fast Na (Homo sapiens, UniProt Q14524); experiment: Ion channel profiling in isolated atrial cardiomyocytes; type: cell-based; conditions: Human/atria isolated atrial cardiomyocytes
# T4 construct: in isolated atrial cardiomyocytes; endogenous in cells; host or cells: isolated human atrial cardiomyocytes
# [8] = tested on: rabbit ventricular wedge; conditions: sulcardine and salts; cited from earlier work
# [9] = tested on: post-MI canine; conditions: sulcardine and salts; cited from earlier work
# [10] = target: T5, IKr (Oryctolagus cuniculus, UniProt Q8WNY2); experiment: Ion channel profiling in isolated atrial cardiomyocytes; type: cell-based; conditions: Rabbit/atria isolated atrial cardiomyocytes
# T5 construct: in isolated atrial cardiomyocytes; endogenous in cells; host or cells: isolated rabbit atrial cardiomyocytes
# [11] = tested on: post-MI conscious canine; conditions: sulcardine and salts; cited from earlier work
# [12] = tested on: IKach; experiment: Ion channel profiling in isolated atrial cardiomyocytes; type: cell-based; conditions: Rabbit/atria isolated atrial cardiomyocytes
# [13] = target: T6, L-Ca (Oryctolagus cuniculus, UniProt P15381); experiment: as above; type: cell-based; conditions: Rabbit/atria isolated atrial cardiomyocytes
# T6 construct: in isolated atrial cardiomyocytes; endogenous in cells; host or cells: isolated rabbit atrial cardiomyocytes
# [14] = target: T7, IKur (Homo sapiens, UniProt P22460); experiment: as above; type: cell-based; conditions: Human/atria isolated atrial cardiomyocytes
# T7 construct: in isolated atrial cardiomyocytes; endogenous in cells; host or cells: isolated human atrial cardiomyocytes
# T7 sequence (P22460 whole entry): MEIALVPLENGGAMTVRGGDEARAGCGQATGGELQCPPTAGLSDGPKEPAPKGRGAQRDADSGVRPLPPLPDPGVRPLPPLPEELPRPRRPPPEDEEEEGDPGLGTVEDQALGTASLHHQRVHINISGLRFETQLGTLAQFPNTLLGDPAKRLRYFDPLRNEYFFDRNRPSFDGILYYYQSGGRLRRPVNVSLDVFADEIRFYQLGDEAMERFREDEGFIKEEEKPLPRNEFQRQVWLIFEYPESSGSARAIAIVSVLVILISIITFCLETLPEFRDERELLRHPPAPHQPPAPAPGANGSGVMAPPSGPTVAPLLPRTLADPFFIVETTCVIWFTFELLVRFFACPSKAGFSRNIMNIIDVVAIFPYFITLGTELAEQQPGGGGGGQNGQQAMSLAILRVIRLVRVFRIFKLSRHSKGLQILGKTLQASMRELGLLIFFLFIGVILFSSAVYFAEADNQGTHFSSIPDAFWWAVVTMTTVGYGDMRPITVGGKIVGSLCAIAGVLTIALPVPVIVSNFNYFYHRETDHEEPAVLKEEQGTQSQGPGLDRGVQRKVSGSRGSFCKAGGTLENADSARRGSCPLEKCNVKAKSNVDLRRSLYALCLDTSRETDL
# T6 sequence (P15381 whole entry, other chains not shown): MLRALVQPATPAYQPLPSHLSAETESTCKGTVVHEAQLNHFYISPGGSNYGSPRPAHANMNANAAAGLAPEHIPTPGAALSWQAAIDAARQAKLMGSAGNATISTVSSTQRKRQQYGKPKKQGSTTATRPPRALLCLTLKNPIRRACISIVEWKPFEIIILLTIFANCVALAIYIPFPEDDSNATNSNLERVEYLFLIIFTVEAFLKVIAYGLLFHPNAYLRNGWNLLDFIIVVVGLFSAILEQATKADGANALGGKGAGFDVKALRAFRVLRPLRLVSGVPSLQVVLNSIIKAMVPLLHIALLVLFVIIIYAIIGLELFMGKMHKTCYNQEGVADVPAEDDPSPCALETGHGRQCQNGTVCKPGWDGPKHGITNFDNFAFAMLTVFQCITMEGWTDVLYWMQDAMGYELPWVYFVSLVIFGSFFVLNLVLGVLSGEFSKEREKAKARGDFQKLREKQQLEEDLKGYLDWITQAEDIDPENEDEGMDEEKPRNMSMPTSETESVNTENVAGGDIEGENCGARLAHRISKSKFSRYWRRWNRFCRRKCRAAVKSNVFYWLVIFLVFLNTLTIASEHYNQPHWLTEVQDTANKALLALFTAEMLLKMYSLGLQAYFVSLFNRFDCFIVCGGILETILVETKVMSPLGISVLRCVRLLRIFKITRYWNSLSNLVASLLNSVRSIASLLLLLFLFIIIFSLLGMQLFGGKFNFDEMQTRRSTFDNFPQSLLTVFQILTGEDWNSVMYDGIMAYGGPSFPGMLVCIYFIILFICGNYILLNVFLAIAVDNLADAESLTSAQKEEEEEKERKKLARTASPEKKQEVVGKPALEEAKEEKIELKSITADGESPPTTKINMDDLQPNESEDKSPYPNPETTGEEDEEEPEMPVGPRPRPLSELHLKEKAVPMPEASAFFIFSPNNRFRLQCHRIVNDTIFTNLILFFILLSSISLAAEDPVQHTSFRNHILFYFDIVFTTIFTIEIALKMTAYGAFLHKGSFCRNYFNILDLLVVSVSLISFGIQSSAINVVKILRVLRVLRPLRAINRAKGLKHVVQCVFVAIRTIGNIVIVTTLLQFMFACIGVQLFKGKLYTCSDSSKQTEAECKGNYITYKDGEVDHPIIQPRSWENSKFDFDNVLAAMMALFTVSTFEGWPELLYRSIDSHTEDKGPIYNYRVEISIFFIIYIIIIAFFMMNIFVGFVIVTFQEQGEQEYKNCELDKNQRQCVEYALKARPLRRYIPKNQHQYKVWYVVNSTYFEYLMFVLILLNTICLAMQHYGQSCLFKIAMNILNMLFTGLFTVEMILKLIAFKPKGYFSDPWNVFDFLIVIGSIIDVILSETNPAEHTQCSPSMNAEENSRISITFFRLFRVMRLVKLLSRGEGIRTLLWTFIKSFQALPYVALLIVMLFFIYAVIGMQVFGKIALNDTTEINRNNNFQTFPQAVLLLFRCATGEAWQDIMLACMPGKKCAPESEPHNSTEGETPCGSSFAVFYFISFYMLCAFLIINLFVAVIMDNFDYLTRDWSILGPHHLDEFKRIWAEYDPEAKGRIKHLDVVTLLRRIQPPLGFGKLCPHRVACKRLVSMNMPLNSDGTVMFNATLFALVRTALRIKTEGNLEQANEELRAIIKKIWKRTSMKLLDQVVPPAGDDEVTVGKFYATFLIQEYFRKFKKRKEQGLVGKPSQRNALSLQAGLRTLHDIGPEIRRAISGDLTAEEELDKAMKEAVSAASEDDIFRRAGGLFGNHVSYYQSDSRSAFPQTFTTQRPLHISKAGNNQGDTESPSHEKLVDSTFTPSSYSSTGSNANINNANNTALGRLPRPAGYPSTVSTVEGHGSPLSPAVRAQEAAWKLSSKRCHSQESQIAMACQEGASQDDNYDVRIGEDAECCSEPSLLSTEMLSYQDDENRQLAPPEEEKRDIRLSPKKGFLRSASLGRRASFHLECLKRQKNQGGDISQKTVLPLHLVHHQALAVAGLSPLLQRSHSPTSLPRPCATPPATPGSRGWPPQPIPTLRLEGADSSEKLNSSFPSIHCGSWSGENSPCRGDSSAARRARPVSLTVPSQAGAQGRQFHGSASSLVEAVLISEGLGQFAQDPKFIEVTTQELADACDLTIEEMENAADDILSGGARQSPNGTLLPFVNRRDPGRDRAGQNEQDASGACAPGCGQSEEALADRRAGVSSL
# T6 sequence (P13806 27-1106 partner, other chains not shown): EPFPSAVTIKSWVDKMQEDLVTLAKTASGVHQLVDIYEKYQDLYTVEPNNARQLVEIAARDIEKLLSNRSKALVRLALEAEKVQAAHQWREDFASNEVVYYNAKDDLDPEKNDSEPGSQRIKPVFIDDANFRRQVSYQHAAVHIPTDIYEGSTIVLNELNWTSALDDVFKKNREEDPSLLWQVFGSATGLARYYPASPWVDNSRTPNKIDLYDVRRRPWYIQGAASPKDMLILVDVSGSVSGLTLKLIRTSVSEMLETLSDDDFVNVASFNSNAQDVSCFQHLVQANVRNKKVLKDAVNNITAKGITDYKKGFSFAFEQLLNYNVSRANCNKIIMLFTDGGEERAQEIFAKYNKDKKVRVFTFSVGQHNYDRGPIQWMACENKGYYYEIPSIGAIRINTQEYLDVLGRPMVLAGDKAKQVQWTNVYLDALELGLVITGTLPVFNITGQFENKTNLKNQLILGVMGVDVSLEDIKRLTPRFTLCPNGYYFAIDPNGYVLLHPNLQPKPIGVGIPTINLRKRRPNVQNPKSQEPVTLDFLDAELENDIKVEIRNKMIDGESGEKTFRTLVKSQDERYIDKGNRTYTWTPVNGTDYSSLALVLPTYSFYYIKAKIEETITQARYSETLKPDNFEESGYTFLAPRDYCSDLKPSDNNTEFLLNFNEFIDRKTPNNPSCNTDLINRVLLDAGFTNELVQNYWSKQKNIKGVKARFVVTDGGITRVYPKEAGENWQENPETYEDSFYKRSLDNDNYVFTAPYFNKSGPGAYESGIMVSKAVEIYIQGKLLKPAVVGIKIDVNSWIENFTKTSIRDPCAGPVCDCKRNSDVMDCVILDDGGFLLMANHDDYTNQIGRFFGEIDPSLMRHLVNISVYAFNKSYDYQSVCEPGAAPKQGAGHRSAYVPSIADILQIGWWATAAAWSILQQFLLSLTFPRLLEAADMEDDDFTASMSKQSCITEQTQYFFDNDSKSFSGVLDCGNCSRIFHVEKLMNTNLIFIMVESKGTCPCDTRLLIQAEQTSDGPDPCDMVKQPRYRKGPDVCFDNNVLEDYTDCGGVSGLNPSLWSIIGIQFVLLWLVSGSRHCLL
# T5 sequence (Q8WNY2 whole entry): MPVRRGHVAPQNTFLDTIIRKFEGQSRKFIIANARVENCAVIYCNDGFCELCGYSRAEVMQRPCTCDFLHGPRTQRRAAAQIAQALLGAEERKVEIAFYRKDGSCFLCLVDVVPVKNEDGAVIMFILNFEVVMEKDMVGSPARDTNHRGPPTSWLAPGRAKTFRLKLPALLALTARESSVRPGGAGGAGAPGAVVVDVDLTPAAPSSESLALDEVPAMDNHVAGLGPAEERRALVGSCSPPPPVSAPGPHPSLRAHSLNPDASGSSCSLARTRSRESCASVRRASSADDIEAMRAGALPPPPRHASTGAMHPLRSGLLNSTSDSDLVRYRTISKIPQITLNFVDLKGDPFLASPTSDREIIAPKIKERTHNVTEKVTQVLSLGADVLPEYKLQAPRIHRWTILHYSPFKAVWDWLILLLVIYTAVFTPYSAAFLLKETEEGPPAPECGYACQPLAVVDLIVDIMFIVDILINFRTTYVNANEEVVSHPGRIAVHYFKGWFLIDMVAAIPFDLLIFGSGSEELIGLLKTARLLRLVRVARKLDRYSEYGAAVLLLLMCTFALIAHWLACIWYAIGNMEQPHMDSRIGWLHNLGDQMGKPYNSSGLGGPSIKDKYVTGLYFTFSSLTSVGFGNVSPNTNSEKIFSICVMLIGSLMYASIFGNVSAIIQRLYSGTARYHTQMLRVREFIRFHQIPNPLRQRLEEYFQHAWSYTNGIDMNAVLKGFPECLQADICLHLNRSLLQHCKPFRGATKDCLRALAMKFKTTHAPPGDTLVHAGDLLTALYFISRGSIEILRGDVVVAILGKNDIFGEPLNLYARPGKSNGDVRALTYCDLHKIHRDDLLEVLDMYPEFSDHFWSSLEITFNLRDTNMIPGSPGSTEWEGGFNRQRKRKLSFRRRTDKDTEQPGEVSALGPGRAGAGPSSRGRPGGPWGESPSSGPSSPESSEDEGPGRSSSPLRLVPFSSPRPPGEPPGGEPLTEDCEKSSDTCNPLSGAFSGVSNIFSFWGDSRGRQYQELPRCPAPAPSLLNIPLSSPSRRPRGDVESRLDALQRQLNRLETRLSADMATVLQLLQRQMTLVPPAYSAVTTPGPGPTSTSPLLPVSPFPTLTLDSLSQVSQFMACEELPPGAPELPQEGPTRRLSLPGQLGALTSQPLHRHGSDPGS
substance,measurement,setting,value
"4-methoxy-N-(3,5-bis-(1-pyrrolidinyl)-4-hydroxy benzyl)benzene sulfonamide [sulcardine]",pIC50,[1],4.35
same,pIC50,[2],4.40
same,pIC50,[3],4.00
same,pIC50,[4],4.59
same,pIC50,[5],4.47
same,pIC50,[6],4.00 to 4.59
same,pIC50,[7],4.59
same,pro-arrhythmic activity,[8],lack significant pro-arrhythmic activity
same,defibrillation threshold,[9],do not increase defibrillation threshold
same,pIC50,[10],4.21
same,pro-arrhythmic activity,[11],lack significant pro-arrhythmic activity
same,pIC50,[12],3.89
same,pIC50,[13],4.27
same,pIC50,[14],< 3.72
